Where two headings read alike, the source gives them in different places. No end group written: not given here.
Tests used:
E. coli UB1005 = assay type: cell-based, Escherichia coli; details: mean of three; 16 to 20 hours at 35° C.; in µg/mL
S. typhimurium 14028S = assay type: cell-based, Salmonella typhimurium; details: mean of three; 16 to 20 hours at 35° C.; in µg/mL
P. aeruginosa H374 [1] = assay type: cell-based, Pseudomonas aeruginosa; details: mean of three; 16 to 20 hours at 35° C.
BMKC = assay: Anti-cancer assay, MTT, LD50; assay type: cell-based; details: BMKC cloned melanoma line, 24 hours with peptide
From the text: (§1) Numbers are LD50 values (μg/mL).

H1299 = assay: Anti-cancer assay, MTT, LD50; assay type: cell-based; details: 24 hours with peptide, lung large cell carcinoma
From the text: as §1

HeLaS3 = assay: Anti-cancer assay, MTT, LD50; assay type: cell-based; details: 24 hours with peptide, cervical carcinoma
From the text: as §1

MCF7 = assay: Anti-cancer assay, MTT, LD50; assay type: cell-based; details: MCF7 breast adenocarcinoma line, MTT, 24 hours with peptide
From the text: as §1

PC3 = assay: Anti-cancer assay, MTT, LD50; assay type: cell-based; details: 24 hours with peptide, prostate adenocarcinoma
From the text: as §1

SW480 = assay: Anti-cancer assay, MTT, LD50; assay type: cell-based; details: SW480 colon adenocarcinoma line, 24 hours with peptide
From the text: as §1

[2] = test system: human red blood cells (RBC); assay: in vitro; assay type: cell-based; details: hemolytic assay, concentration at 50% hemolysis, 1 hour at 37° C.
P. aeruginosa H374 [3] = assay type: cell-based, Pseudomonas aeruginosa; details: for MIC Cm-comb.: MIC of chloramphenicol with peptide at ¼ MIC; for MIC Nal-comb.: MIC of nalidixic acid with peptide at ¼ MIC; for FIC Index: 0.5 or less = synergy
Description: (§2) The synergistic effects of the inventive peptides with either chloramphenicol or nalidixic acid against efflux mutants of Pseudomonas aeruginosa were investigated. The MIC values were determined for either nalidixic acid or chloramphenicol alone as baselines. Peptides were added at their ¼ MIC concentration, and the concentration of either nalidixic acid or chloramphenicol to arrive at the MIC was determined. […] The fractional inhibitory concentration (FIC) index was used to determine synergy between peptides and antibiotics. Two-fold serial dilutions of antibiotic were tested in the presence of a constant amount of peptide, equal to one quarter of peptide MIC. The FIC index was determined as follows: FIC=0.25+MICantibiotic in combination/MICantibiotic alone. An FIC index of 0.5 or less is considered as synergy.

P. aeruginosa H774 = assay type: cell-based, Pseudomonas aeruginosa; details: P. aeruginosa H744; nalidixic acid + peptide at ¼ MIC; 0.5 or less = synergy
Description: as §2

P. aeruginosa = assay type: cell-based, Pseudomonas aeruginosa; details: P. aeruginosa H744; MIC of nalidixic acid with peptide at ¼ MIC
Description: as §2

WI38 = details: MTT, 24 hours with peptide; for WI38 LD50: normal fibroblast line
in vitro = details: human, WI38 normal lung fibroblast cells, LD50 WI38, WI38 normal lung fibroblast line, MTT, 24 hours with peptide
[4] = test system: Pseudomonas aeruginosa ATCC 9027; assay: Antimicrobial assay I, MIC by OD measurement; assay type: cell-based; details: 37° C. for 24 hours, absorbance 620 nm
[5] = test system: Staphylococcus aureus ATCC 6538; assay: Antimicrobial assay I, MIC by OD measurement; assay type: cell-based; details: 37° C. for 24 hours, absorbance 620 nm
[6] = test system: yeast (Saccharomyces cerevisiae); assay: Antimicrobial assay I, yeast assay in RPMI 1640; assay type: cell-based; details: RPMI 1640 media
[7] = test system: Pseudomonas aeruginosa H187; assay type: cell-based; details: Table 8; in µg/mL
[8] = test system: Candida glabrata ATCC15126; assay: Antimicrobial assays II, NCCLS broth microdilution MIC; assay type: cell-based; details: Table 8; in µg/mL
[9] = chloramphenicol + peptide at ¼ MIC
[10] = nalidixic acid + peptide at ¼ MIC, FIC=0.25+MIC comb/MIC alone

Substance: LPKWKVFKKIEKVGRNIRNGIVKAGPAIAVLGEAKALG-NH2 [P306, reference compound]
- E. coli UB1005 MIC (E. coli UB1005): 4
- S. typhimurium 14028S MIC (S. typhimurium 14028S): 4
- P. aeruginosa H374 MIC (P. aeruginosa H374 [1]): 8 µg/mL
- LD50 BMKC (BMKC): 170 µg/mL
- H1299 LD50 (H1299): 120 µg/mL
- HeLaS3 LD50 (HeLaS3): 250 µg/mL
- LD50 MCF7 (MCF7): 50 µg/mL
- PC3 LD50 (PC3): 370 µg/mL
- LD50 SW480 (SW480): 240 µg/mL
- LD50 [2]: > (> indicates greater than 1000)
- MIC Cm-comb. (P. aeruginosa H374 [3]): 8 µg/mL
- MIC Nal-comb. (P. aeruginosa H374 [3]): 5000 µg/mL
- FIC Index (P. aeruginosa H374 [3]; [9]): 0.75
- FIC Index (P. aeruginosa H374 [3]; [10]): 1.25
- FIC Index (P. aeruginosa H774): 0.75
- MIC Nal-comb. (P. aeruginosa): 312 µg/mL
- WI38 LD50 (WI38): 320 µg/mL
- CC50 at 24 h (in vitro): 320 µg/mL

Substance: FAKKLLAKALKL-NH2 [P110]
- paerug9027 (MIC) [4]: 200 µg/mL
- staph6538 (MIC) [5]: > (> indicates greater than 200 μg/mL)
- yeast (MIC or MFC) [6]: 200 µg/mL
- E. coli UB1005 MIC (E. coli UB1005): 16
- S. typhimurium 14028S MIC (S. typhimurium 14028S): 32
- P. aeruginosa H374 MIC (P. aeruginosa H374 [1]): 8 µg/mL
- LD50 BMKC (BMKC): 400 µg/mL
- H1299 LD50 (H1299): 95 µg/mL
- HeLaS3 LD50 (HeLaS3): 540 µg/mL
- LD50 MCF7 (MCF7): 180 µg/mL
- PC3 LD50 (PC3): > (> indicates greater than 1000)
- LD50 SW480 (SW480): 325 µg/mL
- LD50 [2]: > (> indicates greater than 1000)
- MIC Cm-comb. (P. aeruginosa H374 [3]): 16 µg/mL
- MIC Nal-comb. (P. aeruginosa H374 [3]): 2500 µg/mL
- FIC Index (P. aeruginosa H374 [3]; [9]): 1.25
- FIC Index (P. aeruginosa H374 [3]; [10]): 0.75
- FIC Index (P. aeruginosa H774): 1.25
- MIC Nal-comb. (P. aeruginosa): 624 µg/mL
- WI38 LD50 (WI38): 45 µg/mL
- CC50 at 24 h (in vitro): 45 µg/mL

Substance: FAKKLAKKLKKLAKLALAL-OH [P29 (14)]
- MIC P. aeruginosa H187 [7]: 32
- MIC C. glabrata ATCC15126 [8]: 128

Substance: FAKKLAKLAKKLAKAL-NH2 [P109 (73)]
- MIC P. aeruginosa H187 [7]: 64
- MIC C. glabrata ATCC15126 [8]: 128

Substance: FAKKLAKLAKKLAKAL-NH2 [P109]
- paerug9027 (MIC) [4]: 200 µg/mL
- staph6538 (MIC) [5]: > (> indicates greater than 200 μg/mL)
- yeast (MIC or MFC) [6]: 200 µg/mL
- E. coli UB1005 MIC (E. coli UB1005): 16
- S. typhimurium 14028S MIC (S. typhimurium 14028S): 32
- P. aeruginosa H374 MIC (P. aeruginosa H374 [1]): 8 µg/mL
- LD50 BMKC (BMKC): > (> indicates greater than 1000)
- H1299 LD50 (H1299): > (> indicates greater than 1000)
- HeLaS3 LD50 (HeLaS3): > (> indicates greater than 1000)
- LD50 MCF7 (MCF7): > (> indicates greater than 1000)
- PC3 LD50 (PC3): > (> indicates greater than 1000)
- LD50 SW480 (SW480): > (> indicates greater than 1000)
- LD50 [2]: > (> indicates greater than 1000)
- MIC Cm-comb. (P. aeruginosa H374 [3]): 16 µg/mL
- MIC Nal-comb. (P. aeruginosa H374 [3]): 2500 µg/mL
- FIC Index (P. aeruginosa H374 [3]; [9]): 1.25
- FIC Index (P. aeruginosa H374 [3]; [10]): 0.75
- FIC Index (P. aeruginosa H774): 1.25
- MIC Nal-comb. (P. aeruginosa): 624 µg/mL
- WI38 LD50 (WI38): > (> indicates greater than 1000)
- LD50 WI38 (WI38; WI38 normal lung fibroblast line): > (> indicates greater than 1000)

— US20050209157A1, “Short bioactive peptides and methods for their use” (priority 2001, published 2005)
